Reference: patent US11844801B2, “Oral compositions of MK2 pathway inhibitor for treatment of immune conditions” (priority 2020, dated 2023)
In brackets after ≈: the same amount, converted by molar mass.

Assays:
[1] = tested on: p-HSP27, TNF-α, IL-1β, IL-6 and IL-8; experiment: Ex vivo LPS-stimulated p-HSP27 and cytokines in dosed healthy subjects, summary statements over several analytes; set-up: species or system human; settings: SAD and MAD cohorts
Protocol: Blood samples of 10 mL were collected for PD analysis. For the SAD cohorts, blood was collected before dosing and 1, 12, and 24 hours after dosing. For the MAD cohorts, on day 1 blood was collected before the morning dose and 4 and 12 hours after the morning dose (prior to the evening dose); on day 7, blood was collected before the morning dose and 4 and 12 hours after the morning dose. […] Additional details of the assays for analyzing p-HSP27 and cytokines are included in the Supplementary Information. Pharmacodynamics. PD data analysis was conducted using Microsoft Excel 2010 (Microsoft, Redmond, WA), Meso Scale Discovery Workbench® analysis software (Rockville, MD), and Phoenix WinNonlin, version 8.2.

TNF-α [2] = experiment: Ex vivo LPS-stimulated TNF-α in blood of dosed healthy subjects, PK/PD inhibitory Emax model; set-up: species or system human
Protocol: Blood samples of 10 mL were collected for PD analysis. For the SAD cohorts, blood was collected before dosing and 1, 12, and 24 hours after dosing. For the MAD cohorts, on day 1 blood was collected before the morning dose and 4 and 12 hours after the morning dose (prior to the evening dose); on day 7, blood was collected before the morning dose and 4 and 12 hours after the morning dose.
Additional details of the assays for analyzing p-HSP27 and cytokines are included in the Supplementary Information.
Pharmacodynamics. PD data analysis was conducted using Microsoft Excel 2010 (Microsoft, Redmond, WA), Meso Scale Discovery Workbench® analysis software (Rockville, MD), and Phoenix WinNonlin, version 8.2.
Sample Preparation for Cytokine Analysis. For each sample, 180 μL aliquots were transferred into 7 wells of a round bottom 96 well tissue culture polystyrene low evaporation plate. […] No outer wells on the plates were used and all wells surrounding the samples contained 200 μL of phosphate buffered saline.
DMSO was added to all wells in groups ‘A’ and ‘C’ to a final concentration of 0.1% ([…] of a 2% DMSO solution in DMEM containing 10% FBS and 1% penicillin/streptomycin/glutamine). […] Samples were mixed gently for 30 seconds on a plate shaker using pin tools, then placed in an incubator at 37° C./5% CO2 for 1 hour.
Samples in groups ‘A’ and ‘B’ were stimulated with lipopolysaccharide at a final concentration of 100 ng/mL. A stock solution of lipopolysaccharide at 1 mg/mL in DMEM containing 10% FBS and 1% penicillin/streptomycin was diluted to […] in DMEM containing 10% FBS and 1% penicillin/streptomycin, and […] of this working solution was added per well of blood for all samples in groups ‘A’ and ‘B’. […] of DMEM containing 10% FBS only was added per well of blood for all samples in group ‘C’ (unstimulated samples). Samples were mixed gently for 30 seconds on a plate shaker using pin tools, then placed in an incubator at 37° C./5% CO2 for 5 hours.
Following the incubation, the plates were removed from the incubator and sealed with adhesive clear plate seals. The plates were then centrifuged for 10 minutes at 1800×g at room temperature. […] of plasma was removed from each well and transferred to a 96-well polypropylene round bottom master plate, which was then sealed and frozen at −80° C. until all samples from the respective cohort were generated. Once all samples from a given cohort were generated, the samples were analyzed for cytokine (TNF-α, IL-1b, IL-6, and IL-8) production using Meso Scale Discovery Technology.
Analysis of Cytokine Levels Using Meso Scale Discovery Technology. All lipopolysaccharide plasma samples were analyzed for cytokine production with a V-Plex Human Proinflammatory Panel II (4-Plex) Kit from Meso Scale Discovery (Rockville, MD). The master plates containing the plasma samples were thawed on ice, and a daughter plate consisting of a 25-fold dilution of each plasma sample (3 μL of plasma plus 72 μL of Meso Scale Discovery Diluent 2) was generated for each master plate. The diluted plasma samples from the daughter plates were used in the cytokine analysis. The Meso Scale Discovery 4-plex plates were washed 3 times with 150 μL/well of wash buffer (1×KPL phosphate buffered saline with Tween 20 from SeraCare [Milford, MA]). Prepared calibrators and the samples from the daughter plates were added to the washed Meso Scale Discovery 4-plex plates at 50 μL/well. The 4-plex plates were sealed and shaken overnight at 4° C.
After the overnight incubation, the samples were removed by decanting. The 4-plex plates were then washed 3 times with 150 μL/well of wash buffer. […]

TNF-α [3] = experiment: IL-1β stimulated TNF-α production in human whole blood; format: cell-based
Protocol: Compounds were serially diluted in 100% DMSO (Sigma-Aldrich, D2650) followed by a 10× dilution into RPMI (Gibco, 11875). After the one-hour incubation with the compounds or vehicle, 2 μL of IL-1β (R&D, 201-LB-010) in RPMI (Gibco, 11875) was added for a final concentration of 0.5 μg/mL to each well except for the no stimulus wells. […]

[4] = tested on: TNF-α, IL-1β, IL-6 and IL-8; experiment: R848 (TLR7/TLR8) stimulated cytokines and chemokines in human whole blood; format: cell-based; settings: 5 h, R848 0.5 μg/mL, five hours
Protocol: Human whole blood assays were performed as described above with the exceptions listed below. […] Compounds were serially diluted in 100% DMSO (Sigma-Aldrich, D2650) followed by a 10× dilution into RPMI (Gibco, 11875). After the one-hour incubation with the compounds or vehicle, 2 μL of R848 (InvivoGen, tlrl-r848) in RPMI (Gibco, 11875) was added for a final concentration of 0.5 μg/mL to each well except for the no stimulus wells. After five hours of incubation with R848, plasma was harvested and assayed for TNF-α, IL-1β, IL-6 and IL-8 using Meso Scale Discovery Technology V-plex human cytokine kits according to the kit protocol.

[5] = tested on: IP10, IFNγ, IL-6, IL-8 and TNF-α; experiment: Poly(I:C) (TLR3) stimulated cytokines and chemokines in human whole blood; format: cell-based; settings: poly(I:C) 100 μg/mL, 24 hours
Protocol: Human whole blood assays were performed as described above with the exceptions listed below. […] Compounds were serially diluted in 100% DMSO (Sigma-Aldrich, D2650) followed by a 25× dilution into DMEM/10% FBS (Gibco, 11965/26140). After the one-hour incubation with the compounds or vehicle, 20 μL of poly(I:C) (InvivoGen, HMW, tlrl-pic), in DPBS (Gibco, 14190-136) was added for a final concentration of 100 μg/mL to each well except for the no stimulus wells. After twenty-four hours of incubation with poly(I:C), plasma was harvested and assayed for IP10, IFNγ, IL-6, IL-8 and TNF-α using Meso Scale Discovery Technology V-plex human cytokine kits according to the kit protocol.

IL-17A = IL-17A production in CD4+ cells cultured under TH17 skewing conditions; format: cell-based, human
Protocol: CD4+ cells were cultured for 3 days under TH17 skewing conditions (anti-CD3, anti-CD28, anti-IL-4, anti-IFNγ, rIL-6, rIL-23, rTGFβ). On day 3, cells were harvested, washed, re-plated, and treated with compound or DMSO only. […] After 18-20 hours, supernatants were collected and assayed for IL-17A levels using MSD.

Q: Which “modulation of p-HSP27 and inhibition of production of TNF-α, IL-1β, IL-6, and IL-8” value [1] does the source give for `Cc1cnc(-c2ccnc(C(C)(C)O)n2)cc1-n1c(C)cc(OCc2ncc(F)cc2F)c(Cl)c1=O` (single isomer, unassigned) [ATI-450, 3-chloro-4-((3,5-difluoropyridin-2-yl)methoxy)-2′-(2-(2-hydroxypropan-2-yl)pyrimidin-4-yl)-5′,6-dimethyl-2H-[1,4′-bipyridin]-2-one] here?
A: Its value is “concentration-dependent and dose-dependent modulation”.

Q: What about the “TNF-α inhibition versus baseline” value (TNF-α [2]; 50 mg BID MAD cohort) of the same molecule?
A: The value was “up to 92.7%”.

Q: And the “Cmax (Multiple of IC80)” value (TNF-α [2]; 50 mg BID, day 7)?
A: Its value is 3.5x.

Q: What about the “Ctrough (Multiple of IC80)” value (TNF-α [2]; 50 mg BID, day 7) of the same molecule?
A: The value was 1.4x.

Q: What about the IC80 (TNF-α [2]; Homo sapiens, calculated from IC50, combined SAD and MAD data, read-out: IC80, plasma concentration at 80% of maximal inhibition) of the same molecule?
A: The IC80 was 0.0626 µg/mL.

Q: What about the IC50 (TNF-α [2]; Homo sapiens, inhibitory Emax model, combined SAD and MAD data, read-out: IC50, plasma concentration at half maximal inhibition) of the same molecule?
A: Its IC50 is 0.0156 µg/mL.

Q: And the “IC80, plasma concentration at 80% of maximal inhibition” value (TNF-α [2]; calculated from IC50, combined SAD and MAD data)?
A: The value was 0.0626 µg/mL.

Q: And the IC50 (TNF-α [3]; Human Whole Blood, IL-1β, 10 ng/mL, 5 hr)?
A: Its IC50 is 12.2 ± 4 nM.

Q: And the IC80 (TNF-α [3]; human whole blood)?
A: Its IC80 is 0.031 ± 0.006 µg/mL (≈ 0.0603 µM).

Q: And the IC50 [4]?
A: Its IC50 is ~100 nM.

Q: What about the IC50 [5] of the same molecule?
A: Its IC50 is 10 to 100 nM.

Q: And the “IL-17 production in CD4+ cells” value (IL-17A)?
A: Its value is “partially inhibits”.
